Results as given in ChEMBL document CHEMBL5143732 (J Med Chem, 2022).
Converted amounts (≈) assume the structure as drawn.

How the values were obtained:
[1] = Aggregation property of the compound in PBS at 7.4 pH assessed as dimerization at 5.4 uM by UV/vis double-beam spectrometer analysis; type: physicochemical; details: buffer, pH 7.4, 5.4 µM
Cytochrome P450 2C19 = Cytochrome P450 2C19 (Homo sapiens, UniProt P33261); experiment: Inhibition of CYP2C19 in human liver microsome using mephenytoin as substrate preincubated for 10 mins followed by NADPH addition and measured after 15 mins by LC-MS/MS analysis; type: ADME, microsomes
[2] = target: Voltage-gated inwardly rectifying potassium channel KCNH2 (Homo sapiens, UniProt Q12809); experiment: Inhibition of hERG expressed in CHO cells at -80 mV holding potential by automated patch clamp method; type: toxicity, cell-based
Cytochrome P450 1A2 = target: T1, Cytochrome P450 1A2 (Homo sapiens, UniProt P05177); experiment: Inhibition of CYP1A2 in human liver microsome using Phenacetin as substrate preincubated for 10 mins followed by NADPH addition and measured after 15 mins by LC-MS/MS analysis; type: ADME, microsomes
T1 sequence (P05177 whole entry): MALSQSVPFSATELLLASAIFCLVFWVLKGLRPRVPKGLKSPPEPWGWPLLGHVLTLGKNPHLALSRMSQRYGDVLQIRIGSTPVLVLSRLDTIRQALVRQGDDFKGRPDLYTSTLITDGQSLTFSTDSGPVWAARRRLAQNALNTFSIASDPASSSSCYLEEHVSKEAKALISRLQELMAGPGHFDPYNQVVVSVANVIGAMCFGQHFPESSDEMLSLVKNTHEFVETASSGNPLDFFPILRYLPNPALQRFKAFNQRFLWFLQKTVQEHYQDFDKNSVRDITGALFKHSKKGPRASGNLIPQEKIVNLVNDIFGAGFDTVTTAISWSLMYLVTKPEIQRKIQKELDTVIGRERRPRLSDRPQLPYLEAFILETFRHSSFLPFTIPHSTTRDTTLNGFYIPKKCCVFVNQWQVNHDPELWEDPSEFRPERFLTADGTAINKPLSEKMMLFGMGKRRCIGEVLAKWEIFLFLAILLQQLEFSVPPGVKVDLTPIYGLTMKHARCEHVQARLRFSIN

Cytochrome P450 3A4 = Cytochrome P450 3A4 (Homo sapiens, UniProt P08684); experiment: Inhibition of CYP3A4 in human liver microsome using midazolam and testostrone as substrate preincubated for 10 mins followed by NADPH addition and measured after 15 mins by LC-MS/MS analysis; type: ADME, microsomes
[3] = Aqueous solubility of compound at pH 6.8; type: physicochemical; details: buffer
Cytochrome P450 2C9 = Cytochrome P450 2C9 (Homo sapiens, UniProt P11712); experiment: Inhibition of CYP2C9 in human liver microsome using tolbutamide as substrate preincubated for 10 mins followed by NADPH addition and measured after 15 mins by LC-MS/MS analysis; type: ADME, microsomes
Cytochrome P450 2D6 = Cytochrome P450 2D6 (Homo sapiens, UniProt P10635); experiment: Inhibition of CYP2D6 in human liver microsome using dextromethorphan as substrate preincubated for 10 mins followed by NADPH addition and measured after 15 mins by LC-MS/MS analysis; type: ADME, microsomes
Candida parapsilosis [4] = experiment: Potency index, ratio of AMD MIC to test compound MIC for antifungal activity against Candida parapsilosis; type: functional
[5] = Observed AUC infinity in ICR (CD-1) mouse at 1 mg/kg, iv measured upto 24 hrs; type: ADME, organism-based; parameters: dose 1 mg/kg, time < 24 hrs, route iv; details: ICR (CD-1), in vivo
[6] = Therapeutic index ratio of MTD for acute toxicity in iv dosed SPF ICR mouse to ED50 for antifungal activity against Candida albicans ATTCC 14053 infected in SPF kunming mouse; type: organism-based; details: in vivo, read-out: TI
Candida parapsilosis [7] = experiment: Antifungal activity against Candida parapsilosis assessed as inhibition of fungal growth measured after 48 hrs by CLSI based agar dilution method; type: functional; details: Lodderomyces parapsilosis
[8] = Acute toxicity in SPF ICR mouse assessed as polypnea upto 7.5 mg/kg, iv administered on day 1 and measured for 14 days; type: organism-based; details: in vivo, 336 h, time 14 day
Candida albicans [9] = experiment: Antifungal activity against Candida albicans ATTCC 14053 infected in SPF Kunming mouse assessed as increase in mouse survival pre-infected for 1 hr followed by compound addition and measured after 7 to 14 days; type: functional; details: time 7-14 day
Pichia kudriavzevii [10] = experiment: Antifungal activity against Candida krusei assessed as inhibition of fungal growth measured after 48 hrs by CLSI based agar dilution method; type: functional
Candida albicans [11] = experiment: Potency index, ratio of AMD MIC to test compound MIC for antifungal activity against Candida albicans; type: functional
Cryptococcus neoformans [12] = experiment: Antifungal activity against Cryptococcus neoformans ATCC 32609 assessed as inhibition of fungal growth measured after 48 hrs by CLSI based agar dilution method; type: functional
[13] = Observed MRT infinity in ICR (CD-1) mouse at 1 mg/kg, iv measured upto 24 hrs; type: ADME, organism-based; details: in vivo
[14] = Acute toxicity in SPF ICR mouse assessed as polypnea at 15 to 30 mg/kg, iv administered on day 1 and measured for 14 days; type: organism-based; details: in vivo, 336 h, dose 15-30 mg/kg, time 14 day
Pichia kudriavzevii [15] = experiment: Potency index, ratio of AMD MIC to test compound MIC for antifungal activity against Candida krusei; type: functional
[16] = Hemolytic activity in human RBC measured after 1 hr; type: toxicity, cell-based, Erythrocyte; details: red blood cells (erythrocytes)
Nakaseomyces glabratus = experiment: Potency index, ratio of AMD MIC to test compound MIC for antifungal activity against Candida glabrata; type: functional
Candida albicans [17] = experiment: Antifungal activity against Candida albicans assessed as inhibition of fungal growth measured after 48 hrs by CLSI based agar dilution method; type: functional
Cryptococcus neoformans [18] = experiment: Potency index, ratio of AMD MIC to test compound MIC for antifungal activity against Cryptococcus neoformans; type: functional
[19] = Acute toxicity in SPF ICR mouse assessed as prostration upto 7.5 mg/kg, iv administered on day 1 and measured for 14 days; type: organism-based; details: in vivo, 336 h, time 14 day
Pichia kudriavzevii [20] = experiment: Antifungal activity against Candida krusei ATCC 6258 assessed as inhibition of fungal growth measured after 48 hrs by CLSI based agar dilution method; type: functional
[21] = Elimination half life in ICR (CD-1) mouse at 1 mg/kg, iv measured upto 24 hrs; type: ADME, organism-based; details: in vivo, read-out: beta t1/2 (converted)
[22] = AUClast in ICR (CD-1) mouse at 1 mg/kg, iv measured upto 24 hrs; type: ADME, organism-based; parameters: dose 1 mg/kg, time < 24 hrs, route iv; details: ICR (CD-1), in vivo
[23] = Acute toxicity in SPF ICR mouse assessed as prostration at 15 to 30 mg/kg, iv administered on day 1 and measured for 14 days; type: organism-based; details: in vivo, 336 h, dose 15-30 mg/kg, time 14 day
Candida tropicalis [24] = experiment: Antifungal activity against Candida tropicalis assessed as inhibition of fungal growth measured after 48 hrs by CLSI based agar dilution method; type: functional
[25] = Observed clearance in ICR (CD-1) mouse at 1 mg/kg, iv measured upto 24 hrs; type: ADME, organism-based; parameters: dose 1 mg/kg, time < 24 hrs, route iv; details: in vivo, route iv, dose 1 mg/kg, time < 24 hrs, read-out: CL
[26] = Observed volume of distribution at steady state in ICR (CD-1) mouse at 1 mg/kg, iv measured upto 24 hrs; type: ADME, organism-based; details: in vivo, read-out: Vdss
[27] = Acute toxicity in iv dosed SPF ICR mouse assessed as maximum tolerated measured for 14 days; type: organism-based; details: in vivo, dose 30 mg/kg, time 14 day
Candida tropicalis [28] = experiment: Potency index, ratio of AMD MIC to test compound MIC for antifungal activity against Candida tropicalis; type: functional

Chain of Cytochrome P450 2C19 (P33261 whole entry): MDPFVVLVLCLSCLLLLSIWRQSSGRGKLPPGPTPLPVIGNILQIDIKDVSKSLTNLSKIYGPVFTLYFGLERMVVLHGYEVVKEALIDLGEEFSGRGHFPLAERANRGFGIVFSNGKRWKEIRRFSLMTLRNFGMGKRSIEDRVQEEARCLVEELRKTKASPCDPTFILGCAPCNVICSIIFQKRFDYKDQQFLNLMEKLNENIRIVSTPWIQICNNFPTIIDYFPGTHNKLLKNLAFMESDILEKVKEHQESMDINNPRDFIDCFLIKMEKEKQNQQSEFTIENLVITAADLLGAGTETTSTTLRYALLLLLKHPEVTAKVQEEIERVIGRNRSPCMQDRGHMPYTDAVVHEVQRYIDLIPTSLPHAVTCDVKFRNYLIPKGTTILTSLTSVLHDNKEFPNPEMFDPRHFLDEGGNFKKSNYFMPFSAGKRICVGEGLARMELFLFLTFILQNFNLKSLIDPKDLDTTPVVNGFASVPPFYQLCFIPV
Chain of Cytochrome P450 3A4 (P08684 whole entry): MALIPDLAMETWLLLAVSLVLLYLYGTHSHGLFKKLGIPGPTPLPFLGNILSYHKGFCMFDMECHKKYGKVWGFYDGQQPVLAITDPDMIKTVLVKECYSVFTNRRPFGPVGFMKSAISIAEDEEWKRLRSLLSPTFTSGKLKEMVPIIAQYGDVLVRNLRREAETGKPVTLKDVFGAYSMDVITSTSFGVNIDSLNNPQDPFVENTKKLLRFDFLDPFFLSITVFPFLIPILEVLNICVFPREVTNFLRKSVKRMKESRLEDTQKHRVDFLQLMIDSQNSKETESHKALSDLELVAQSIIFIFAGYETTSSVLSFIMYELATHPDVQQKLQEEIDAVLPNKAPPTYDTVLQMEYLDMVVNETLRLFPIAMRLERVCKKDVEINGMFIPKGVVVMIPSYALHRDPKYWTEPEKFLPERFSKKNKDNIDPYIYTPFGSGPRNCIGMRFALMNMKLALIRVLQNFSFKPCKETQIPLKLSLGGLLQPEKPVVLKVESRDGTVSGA
Chain of Voltage-gated inwardly rectifying potassium channel KCNH2 (Q12809 whole entry): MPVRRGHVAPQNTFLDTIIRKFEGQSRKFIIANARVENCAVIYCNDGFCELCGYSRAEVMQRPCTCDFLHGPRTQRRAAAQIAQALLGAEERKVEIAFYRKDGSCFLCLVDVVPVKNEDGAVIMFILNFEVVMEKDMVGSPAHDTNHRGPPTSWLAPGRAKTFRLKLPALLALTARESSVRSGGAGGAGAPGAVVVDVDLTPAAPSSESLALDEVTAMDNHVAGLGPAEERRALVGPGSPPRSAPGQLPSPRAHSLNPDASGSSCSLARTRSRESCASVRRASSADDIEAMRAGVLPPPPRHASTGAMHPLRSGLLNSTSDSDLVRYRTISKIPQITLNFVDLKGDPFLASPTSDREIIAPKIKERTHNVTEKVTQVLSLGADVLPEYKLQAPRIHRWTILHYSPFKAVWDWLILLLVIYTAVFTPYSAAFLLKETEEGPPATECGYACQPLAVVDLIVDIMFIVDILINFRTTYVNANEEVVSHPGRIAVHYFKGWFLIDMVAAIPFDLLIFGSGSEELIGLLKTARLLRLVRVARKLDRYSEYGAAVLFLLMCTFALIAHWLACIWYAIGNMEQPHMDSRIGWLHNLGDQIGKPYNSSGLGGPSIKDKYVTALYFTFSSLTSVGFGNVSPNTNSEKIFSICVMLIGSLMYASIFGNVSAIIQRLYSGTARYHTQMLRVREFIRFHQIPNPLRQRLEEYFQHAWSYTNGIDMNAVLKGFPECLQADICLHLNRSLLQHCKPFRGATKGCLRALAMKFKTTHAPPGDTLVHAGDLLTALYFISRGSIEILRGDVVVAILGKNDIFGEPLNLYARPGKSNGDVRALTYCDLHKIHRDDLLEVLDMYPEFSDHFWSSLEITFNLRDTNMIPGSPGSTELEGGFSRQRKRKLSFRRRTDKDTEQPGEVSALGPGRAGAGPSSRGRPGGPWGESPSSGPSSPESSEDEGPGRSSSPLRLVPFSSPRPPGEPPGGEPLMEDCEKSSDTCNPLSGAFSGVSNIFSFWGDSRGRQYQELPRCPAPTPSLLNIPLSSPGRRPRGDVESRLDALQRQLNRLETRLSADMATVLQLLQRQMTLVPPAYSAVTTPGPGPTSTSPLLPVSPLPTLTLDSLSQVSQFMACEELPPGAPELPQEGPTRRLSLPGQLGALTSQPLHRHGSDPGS
Chain of Cytochrome P450 2D6 (P10635 whole entry): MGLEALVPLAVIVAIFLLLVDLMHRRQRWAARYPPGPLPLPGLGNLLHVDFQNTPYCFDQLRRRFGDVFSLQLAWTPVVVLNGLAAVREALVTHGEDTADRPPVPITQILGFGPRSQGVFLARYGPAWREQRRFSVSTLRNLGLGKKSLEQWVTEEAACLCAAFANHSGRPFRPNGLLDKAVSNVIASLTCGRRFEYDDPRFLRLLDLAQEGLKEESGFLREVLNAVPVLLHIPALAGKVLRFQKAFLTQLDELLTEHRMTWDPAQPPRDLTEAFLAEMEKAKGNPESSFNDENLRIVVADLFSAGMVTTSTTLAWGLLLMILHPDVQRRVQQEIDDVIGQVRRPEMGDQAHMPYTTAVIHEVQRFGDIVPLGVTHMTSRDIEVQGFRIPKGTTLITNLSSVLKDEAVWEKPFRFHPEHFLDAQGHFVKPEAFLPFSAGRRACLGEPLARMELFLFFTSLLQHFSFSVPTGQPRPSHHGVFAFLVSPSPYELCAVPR
Chain of Cytochrome P450 2C9 (P11712 whole entry): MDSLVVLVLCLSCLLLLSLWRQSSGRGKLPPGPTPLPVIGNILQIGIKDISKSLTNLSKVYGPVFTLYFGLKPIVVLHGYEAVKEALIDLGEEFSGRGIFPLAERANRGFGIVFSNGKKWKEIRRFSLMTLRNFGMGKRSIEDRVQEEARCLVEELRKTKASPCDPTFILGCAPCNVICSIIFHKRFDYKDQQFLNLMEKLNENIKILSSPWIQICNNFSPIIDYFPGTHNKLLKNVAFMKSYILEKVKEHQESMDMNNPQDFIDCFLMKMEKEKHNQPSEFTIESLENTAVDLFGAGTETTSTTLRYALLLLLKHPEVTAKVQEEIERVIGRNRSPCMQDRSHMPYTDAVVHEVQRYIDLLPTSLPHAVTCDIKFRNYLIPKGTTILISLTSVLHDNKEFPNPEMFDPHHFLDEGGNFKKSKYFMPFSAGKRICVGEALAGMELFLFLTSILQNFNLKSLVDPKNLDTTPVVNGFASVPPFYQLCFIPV

CNCC(=O)N[C@@H]1[C@H](O)[C@H](O[C@H]2/C=C/C=C/C=C/C=C/C=C/C=C/C=C/[C@H](C)[C@@H](O)[C@@H](C)[C@H](C)OC(=O)C[C@H](O)C[C@H](O)CC[C@@H](O)[C@H](O)C[C@H](O)C[C@]3(O)C[C@H](O)[C@@H](C(=O)NCCN)[C@H](C2)O3)O[C@H](C)[C@H]1O.NC(CCC(=O)O)C(=O)O
Activity [1]: Active
IC50 (Cytochrome P450 2C19): > 50 µM
IC50 [2]: > 13.3 µM
IC50 (Cytochrome P450 1A2): > 25 µM
IC50 (Cytochrome P450 3A4): 36.9 µM
solubility [3]: 106 mg/mL
IC50 (Cytochrome P450 2C9): > 50 µM
IC50 (Cytochrome P450 2D6): > 50 µM

CNCC(=O)N[C@@H]1[C@H](O)[C@H](O[C@H]2/C=C/C=C/C=C/C=C/C=C/C=C/C=C/[C@H](C)[C@@H](O)[C@@H](C)[C@H](C)OC(=O)C[C@H](O)C[C@H](O)CC[C@@H](O)[C@H](O)C[C@H](O)C[C@]3(O)C[C@H](O)[C@@H](C(=O)NCCN)[C@H](C2)O3)O[C@H](C)[C@H]1O
Ratio (Candida parapsilosis [4]): 16
AUC(0-inf) [5]: 31800 ng·h/mL
selectivity ratio [6]: 35.7
MIC (Candida parapsilosis [7]): 0.03 µg/mL (≈ 0.0289 µM)
Activity [8]: Non-Toxic
ED50 (Candida albicans [9]): 0.21 mg/kg
MIC (Pichia kudriavzevii [10]): 0.25 µg/mL (≈ 0.241 µM)
Ratio (Candida albicans [11]): 60
MIC (Cryptococcus neoformans [12]): < 0.008 µg/mL
MRT inf [13]: 29.5 h
Activity [14]: Toxic
Ratio (Pichia kudriavzevii [15]): 8
HC50 at 1 h [16]: 105 µM
Ratio (Nakaseomyces glabratus): 66
MIC (Candida albicans [17]): < 0.008 µg/mL
Ratio (Cryptococcus neoformans [18]): 125
solubility [3]: 0.0585 mg/mL (≈ 56.4 µM)
Activity [19]: Non-Toxic
MIC (Pichia kudriavzevii [20]): 0.125 µg/mL (≈ 0.121 µM)
half-life [21]: 20.5 h
AUC(0-t) at 24 h [22]: 17600 ng·h/mL
Activity [23]: Toxic
MIC (Candida tropicalis [24]): 0.03 µg/mL (≈ 0.0289 µM)
clearance [25]: 0.53 mL/min/kg
Vd [26]: 0.917 L/kg
MTD at 336 h [27]: 7.5 mg/kg
Ratio (Candida tropicalis [28]): 33
